Source: the NIST ThermoML archive (doi:10.1016/j.jct.2011.04.018)
± gives the expanded uncertainty stated by the source.

Test: activity coefficient (dimensionless); of the first substance listed, at infinite dilution; xn = mol fraction of the nth substance listed
Details: 101 kPa, Liquid, Chromatography, x1 = 0

| Structure (SMILES) | activity coefficient (318.15 K) | activity coefficient (328.15 K) | activity coefficient (338.15 K) | activity coefficient (348.15 K) | activity coefficient (358.15 K) | activity coefficient (368.15 K) | activity coefficient (378.15 K) | activity coefficient (308.15 K) |
| --- | --- | --- | --- | --- | --- | --- | --- | --- |
| Cc1ccccc1C [1,2-dimethylbenzene] + O=S(=O)([N-]S(=O)(=O)C(F)(F)F)C(F)(F)F.OCCC[n+]1ccccc1 | 3.11 ± 0.21 | 3.12 ± 0.21 | 3.13 ± 0.21 | 3.13 ± 0.21 | 3.14 ± 0.21 | 3.15 ± 0.21 | 3.15 ± 0.21 |  |
| Cc1cccc(C)c1 [1,3-dimethylbenzene] + O=S(=O)([N-]S(=O)(=O)C(F)(F)F)C(F)(F)F.OCCC[n+]1ccccc1 | 3.58 ± 0.24 | 3.58 ± 0.24 | 3.59 ± 0.24 | 3.6 ± 0.25 | 3.6 ± 0.25 | 3.61 ± 0.25 | 3.62 ± 0.25 |  |
| Cc1ccc(C)cc1 [1,4-dimethylbenzene] + O=S(=O)([N-]S(=O)(=O)C(F)(F)F)C(F)(F)F.OCCC[n+]1ccccc1 | 3.58 ± 0.24 | 3.6 ± 0.25 | 3.61 ± 0.25 | 3.62 ± 0.25 | 3.63 ± 0.25 | 3.64 ± 0.25 | 3.65 ± 0.25 |  |
| C1COCCO1 [1,4-dioxane] + O=S(=O)([N-]S(=O)(=O)C(F)(F)F)C(F)(F)F.OCCC[n+]1ccccc1 | 0.514 ± 0.038 | 0.541 ± 0.04 | 0.568 ± 0.041 | 0.595 ± 0.042 | 0.621 ± 0.043 | 0.647 ± 0.044 | 0.672 ± 0.046 |  |
| C=CCCCCCCCC [1-decene] + O=S(=O)([N-]S(=O)(=O)C(F)(F)F)C(F)(F)F.OCCC[n+]1ccccc1 | 128 ± 9 | 115 ± 8 | 104 ± 7 | 95.2 ± 6.5 | 86.6 ± 5.9 | 79.7 ± 5.5 |  | 142 ± 10 |
| C=CCCCCC [1-heptene] + O=S(=O)([N-]S(=O)(=O)C(F)(F)F)C(F)(F)F.OCCC[n+]1ccccc1 | 33.1 ± 2.3 | 30.7 ± 2.1 | 28.5 ± 1.9 | 26.7 ± 1.8 | 25.2 ± 1.7 | 23.7 ± 1.6 |  | 35.7 ± 2.4 |
| C#CCCCCC [1-heptyne] + O=S(=O)([N-]S(=O)(=O)C(F)(F)F)C(F)(F)F.OCCC[n+]1ccccc1 | 9.81 ± 0.67 | 9.53 ± 0.65 | 9.21 ± 0.63 | 9 ± 0.61 | 8.74 ± 0.6 | 8.55 ± 0.58 |  | 10.1 ± 0.7 |
| C#CCCCC [1-hexyne] + O=S(=O)([N-]S(=O)(=O)C(F)(F)F)C(F)(F)F.OCCC[n+]1ccccc1 | 6.25 ± 0.43 | 6.13 ± 0.42 | 6 ± 0.41 | 5.91 ± 0.4 | 5.8 ± 0.4 | 5.72 ± 0.39 |  | 6.38 ± 0.43 |
| C#CCCCCCC [1-octyne] + O=S(=O)([N-]S(=O)(=O)C(F)(F)F)C(F)(F)F.OCCC[n+]1ccccc1 | 15.5 ± 1.1 | 14.9 ± 1 | 14.2 ± 1 | 13.7 ± 0.9 | 13.2 ± 0.9 | 12.7 ± 0.9 |  | 16.2 ± 1.1 |
| C=CCCC [1-pentene] + O=S(=O)([N-]S(=O)(=O)C(F)(F)F)C(F)(F)F.OCCC[n+]1ccccc1 | 13.5 ± 0.9 | 12.7 ± 0.9 | 12 ± 0.8 | 11.5 ± 0.8 |  |  |  | 14.2 ± 1 |
| CC(C)CC(C)(C)C [2,2,4-trimethylpentane] + O=S(=O)([N-]S(=O)(=O)C(F)(F)F)C(F)(F)F.OCCC[n+]1ccccc1 | 73.9 ± 5.1 | 67 ± 4.6 | 60.7 ± 4.2 | 55.7 ± 3.8 | 51.4 ± 3.5 | 47.3 ± 3.2 |  | 81.7 ± 5.6 |
| CCC(C)(C)C [2,2-dimethylbutane] + O=S(=O)([N-]S(=O)(=O)C(F)(F)F)C(F)(F)F.OCCC[n+]1ccccc1 | 37.3 ± 2.6 | 33.9 ± 2.3 | 30.9 ± 2.1 | 28.5 ± 1.9 | 26.3 ± 1.8 |  |  | 41 ± 3 |
| CCC(C)(C)OC [2-methoxy-2-methylbutane] + O=S(=O)([N-]S(=O)(=O)C(F)(F)F)C(F)(F)F.OCCC[n+]1ccccc1 | 4.45 ± 0.3 | 4.54 ± 0.31 | 4.61 ± 0.31 | 4.7 ± 0.32 | 4.77 ± 0.33 | 4.84 ± 0.33 |  | 4.37 ± 0.3 |
| COC(C)(C)C [2-methoxy-2-methylpropane] + O=S(=O)([N-]S(=O)(=O)C(F)(F)F)C(F)(F)F.OCCC[n+]1ccccc1 | 2.74 ± 0.19 | 2.83 ± 0.19 | 2.91 ± 0.2 | 3.01 ± 0.2 | 3.08 ± 0.21 | 3.18 ± 0.22 |  | 2.63 ± 0.18 |
| CCC(C)CC [3-methylpentane] + O=S(=O)([N-]S(=O)(=O)C(F)(F)F)C(F)(F)F.OCCC[n+]1ccccc1 | 40 ± 2.7 | 36.6 ± 2.5 | 33.3 ± 2.3 | 30.9 ± 2.1 | 28.5 ± 1.9 |  |  | 44 ± 3 |
| CC(=O)O [acetic acid] + O=S(=O)([N-]S(=O)(=O)C(F)(F)F)C(F)(F)F.OCCC[n+]1ccccc1 | 0.255 ± 0.03 | 0.277 ± 0.03 | 0.298 ± 0.031 | 0.32 ± 0.031 | 0.343 ± 0.032 | 0.367 ± 0.033 | 0.388 ± 0.034 |  |
| CC(C)=O [acetone] + O=S(=O)([N-]S(=O)(=O)C(F)(F)F)C(F)(F)F.OCCC[n+]1ccccc1 | 0.403 ± 0.034 | 0.421 ± 0.035 | 0.437 ± 0.035 | 0.453 ± 0.036 | 0.469 ± 0.037 | 0.484 ± 0.037 | 0.5 ± 0.038 |  |
| c1ccccc1 [benzene] + O=S(=O)([N-]S(=O)(=O)C(F)(F)F)C(F)(F)F.OCCC[n+]1ccccc1 | 1.58 ± 0.1 | 1.58 ± 0.1 | 1.59 ± 0.11 | 1.6 ± 0.11 | 1.61 ± 0.11 | 1.62 ± 0.11 | 1.62 ± 0.11 |  |
| CCCCO [butan-1-ol] + O=S(=O)([N-]S(=O)(=O)C(F)(F)F)C(F)(F)F.OCCC[n+]1ccccc1 | 2.27 ± 0.15 | 2.14 ± 0.15 | 2.02 ± 0.14 | 1.91 ± 0.13 | 1.82 ± 0.12 | 1.73 ± 0.12 | 1.67 ± 0.11 |  |
| C1CCCCCC1 [cycloheptane] + O=S(=O)([N-]S(=O)(=O)C(F)(F)F)C(F)(F)F.OCCC[n+]1ccccc1 | 32.8 ± 2.2 | 29.7 ± 2 | 26.9 ± 1.8 | 24.7 ± 1.7 | 22.9 ± 1.6 | 21.2 ± 1.4 |  | 36.3 ± 2.5 |
| C1CCCCC1 [cyclohexane] + O=S(=O)([N-]S(=O)(=O)C(F)(F)F)C(F)(F)F.OCCC[n+]1ccccc1 | 23.2 ± 1.6 | 21.1 ± 1.4 | 19.4 ± 1.3 | 17.9 ± 1.2 | 16.7 ± 1.1 | 15.5 ± 1.1 |  | 25.5 ± 1.7 |
| C1=CCCCC1 [cyclohexene] + O=S(=O)([N-]S(=O)(=O)C(F)(F)F)C(F)(F)F.OCCC[n+]1ccccc1 | 11 ± 0.8 | 10.4 ± 0.7 | 9.81 ± 0.67 | 9.31 ± 0.64 | 8.92 ± 0.61 | 8.52 ± 0.58 |  | 11.7 ± 0.8 |
| C1CCCCCCC1 [cyclooctane] + O=S(=O)([N-]S(=O)(=O)C(F)(F)F)C(F)(F)F.OCCC[n+]1ccccc1 | 46.4 ± 3.2 | 41.6 ± 2.8 | 37.3 ± 2.6 | 34 ± 2.3 | 31.3 ± 2.1 | 28.6 ± 2 |  | 51.9 ± 3.6 |
| C1CCCC1 [cyclopentane] + O=S(=O)([N-]S(=O)(=O)C(F)(F)F)C(F)(F)F.OCCC[n+]1ccccc1 | 14.6 ± 1 | 13.5 ± 0.9 | 12.5 ± 0.9 | 11.7 ± 0.8 | 11.1 ± 0.8 | 10.4 ± 0.7 |  | 15.8 ± 1.1 |
| CCCCCCCCCC [decane] + O=S(=O)([N-]S(=O)(=O)C(F)(F)F)C(F)(F)F.OCCC[n+]1ccccc1 | 284 ± 20 | 245 ± 17 | 214 ± 15 | 190 ± 13 | 168 ± 12 | 150 ± 10 |  | 327 ± 22 |
| CCOCC [diethyl ether] + O=S(=O)([N-]S(=O)(=O)C(F)(F)F)C(F)(F)F.OCCC[n+]1ccccc1 | 2.77 ± 0.19 | 2.82 ± 0.19 | 2.87 ± 0.2 | 2.91 ± 0.2 | 2.97 ± 0.2 | 3.01 ± 0.2 |  | 2.71 ± 0.18 |
| CCCOCCC [dipropyl ether] + O=S(=O)([N-]S(=O)(=O)C(F)(F)F)C(F)(F)F.OCCC[n+]1ccccc1 | 9.45 ± 0.64 | 9.28 ± 0.63 | 9.12 ± 0.62 | 8.99 ± 0.61 | 8.87 ± 0.61 | 8.75 ± 0.6 |  | 9.62 ± 0.66 |
| CCO [ethanol] + O=S(=O)([N-]S(=O)(=O)C(F)(F)F)C(F)(F)F.OCCC[n+]1ccccc1 | 1.16 ± 0.07 | 1.11 ± 0.07 | 1.06 ± 0.07 | 1.02 ± 0.06 | 0.984 ± 0.062 | 0.949 ± 0.06 | 0.919 ± 0.058 |  |
| CCc1ccccc1 [ethylbenzene] + O=S(=O)([N-]S(=O)(=O)C(F)(F)F)C(F)(F)F.OCCC[n+]1ccccc1 | 3.96 ± 0.27 | 3.93 ± 0.27 | 3.9 ± 0.27 | 3.87 ± 0.26 | 3.84 ± 0.26 | 3.82 ± 0.26 | 3.79 ± 0.26 |  |
